In patent US20040121991A1, “Dehydroepiandrosterone (DHEA) congeners for prevention and/or treatment of ulcers” (priority 2002, published 2004):
Where “and” joins values, the source holds several entries; their conditions need not be identical. Identical values can stand only once.

Key:
oral mucositis = experiment: Acute radiation model of oral mucositis in hamsters; assay type: in vivo, Male Golden Syrian hamsters; conditions: day -1 to day 27; for weight change following irradiation: 40 Gy on day 0, DHEA-cyclodextrin complex; for daily mucositis scores vs saline control: score scale 0-5
Description: The acute radiation model in hamsters (see, e.g., Sonis et al., 2000) has proven to be an accurate, efficient and cost-effective technique to provide a preliminary evaluation of anti-mucositis compounds. The course of mucositis in this model is well defined and results in peak ulceration scores approximately 14-16 days following radiation. The acute model has been used to study specific mechanistic elements in the pathogenesis of mucositis. Molecules that show efficacy in the acute radiation model may be further evaluated in the more complex models of fractionated radiation, chemotherapy, or concomitant therapy. In this example, an acute radiation dose of 40 Gy on day 0 was administered and clinically significant mucositis was observed around day 14.
Animals. Male Golden Syrian hamsters were randomly and prospectively divided into six (6) treatment groups prior to irradiation as follows:
Hamsters were given an acute radiation dose directed to their oral mucosa. Test materials were applied by injection (once per day) or by oral dosing (either once or twice per day. Oral administrations were done using feeding needles. Dosing began the day before radiation (day −1) and continued until day 27. The test material utilized was an Inflabloc® pharmaceutical preparation, which, for the present example, comprised a complex of DHEA and cyclodextrin.
Starting on Day 6 and continuing every second day thereafter (days 8, 10, 12, 14, 16, 18, 20, 22, 24, 26, & 28), each animal was evaluated for mucositis scoring.
Mucositis Scoring. Parameters measured were the mucositis score, weight change and survival. For the evaluation of mucositis, the animals were anesthetized with inhalation anesthetics, and the left pouch everted. Mucositis was scored visually by comparison to a validated photographic scale, ranging from 0 for normal, to 5 for severe ulceration (clinical scoring).
A score of 1-2 is considered to represent a mild stage of the disease, whereas a score of 3-5 is considered to indicate moderate to severe mucositis. Following visual scoring, a photograph was taken of each animal's mucosa using a standardized technique. At the conclusion of the experiment, all film was developed and the photographs randomly numbered. At least two independent trained observers graded the photographs in blinded fashion using the above-described scale (blinded scoring).
The effect on mucositis of each drug treatment compared to placebo was assessed according to these parameters: the difference in the number of days hamsters in each group have severe (score 3) mucositis and the rank sum differences in daily mucositis scores. On each evaluation day, the number of animals with a blinded mucositis score of 3 in each drug treatment group, was compared to the control group. Differences were analyzed on a cumulative basis. For each evaluation day the scores of the control group were compared to those of the placebo group and vehicle group.
Mucositis Induction. Mucositis was induced using a standardized acute radiation protocol using a single dose of radiation (40 Gy/dose) on Day 0.

[1] = system: TNBS-induced colonic damage; assay type: in vivo, Male Wistar rats
Experimental: In this Example, the effects of DHEA were evaluated in the TNBS model (see, e.g., Boughton-Smith et al., 1988; Morris et al., 1989; Reuter et al., 1996) at a defined oral dose administered twice a day by gavage, using a low intracolonic concentration of TNBS (10 mg). This challenge dose of TNBS is known to generate reproducible yet not unduly severe mucosal injury in the colon, as determined 3 days after instillation. In this current investigation, colonic macroscopic injury has been assessed. In addition to DHEA, the effect of a single daily low oral dose of dexamethasone, which has a broad profile of anti-inflammatory actions, was also evaluated in this model.
Male Wistar rats (220-300 g) were randomised into groups before commencement of the study. On day 0, the rats were transiently anaesthetised with ether and TNBS (10 mg in 0.25 ml of 50% ethanol) was instilled into the colon using a soft plastic catheter inserted in the rat rectum. The rats were allowed to recover with free access to food and drinking water. At the end of the Experiment, 72 h after TNBS administration (i.e. on the morning of day 3), the distal colon was dissected, photographed and stored appropriately for subsequent analyses. Macroscopic scoring of distal 8 cm of colon was measured as the primary efficacy parameter. In addition, the weight of the colonic segment was assessed as an indirect and non-specific marker of oedema, and the body weight of the animals was determined each day of the study.
The groups (n=8-12) for study with TNBS challenge were: (a) saline control administered in 0.5 ml p.o. per rat, b.i.d; (b) DHEA (50 mg per rat, b.i.d); (c) dexamethasone (0.3 mg/kg, oral, once daily); (d) control non-challenged with TNBS and non-drug-treated (received only salineb.i.d.). The DHEA was administered orally, twice daily for 48 h before TNBS administration, on Day 0 with TNBS administration and on Day 1 and 2. The DHEA was administered as a solid bicarbonate composite providing high bioavailability. Tissues were removed 72 h after TNBS administration (Day 3). Saline treated animals on the final day were 95.6+/−1.7% of mean starting body weight. Similarly, DHEA-treated animals were 95.4+/−1.1% of their mean starting body weight. Weight loss in the Dexamethasone treatment group was significant at 84.5+/−1.3% of starting weight.

C[C@]12CC[C@H](O)CC1=CC[C@@H]1[C@@H]2CC[C@]2(C)C(=O)CC[C@@H]12 [DHEA, (3β)-3-hydroxyandrost-5-en-17-one]
weight change following irradiation (oral mucositis; 25 mg/kg/day ip): weight gain patterns that closely corresponded to those observed in the control group
daily mucositis scores vs saline control (oral mucositis; 50 mg/kg i.p.): significantly lower than those in the saline control group
weight change following irradiation (oral mucositis; 50 mg/kg/day ip): weight gain patterns that closely corresponded to those observed in the control group
weight change following irradiation (oral mucositis; 250 mg/kg/day p.o.): no pattern of weight loss
daily mucositis scores vs saline control (oral mucositis; 500 mg/kg/day oral): significantly lower than those in the saline control group
weight change following irradiation (oral mucositis; 500 mg/kg/day p.o.): no pattern of weight loss
body weight on the final day, % of mean starting body weight ([1]; DHEA 50 mg per rat b.i.d. oral, solid bicarbonate composite, TNBS 10 mg, day 3): 95.4+/−1.1%
area of colonic injury, % of total colonic area of the segment ([1]; DHEA 50 mg per rat b.i.d. oral, 72 h after TNBS challenge, TNBS control 48±2%): 31+/−3%
reduction in the area of colonic injury ([1]; DHEA 50 mg per rat b.i.d. oral, vs TNBS control, P<0.001): 40% and ~40%
colon weight of the standard segment (index of inflammatory oedema) ([1]; DHEA 50 mg per rat b.i.d. oral, vs saline + TNBS, end of study): significantly (P<0.001) reduced

C[C@@H]1C[C@H]2[C@@H]3CCC4=CC(=O)C=C[C@]4(C)[C@@]3(F)[C@@H](O)C[C@]2(C)[C@@]1(O)C(=O)CO [dexamethasone]
area of colonic injury, % of the mucosal area ([1]; dexamethasone 0.3 mg/kg once a day oral, 72 h after TNBS challenge, n=8, TNBS control 48±2%): 41±5%
